Our source for the IC50 values is US12202818B2, “Compounds and methods for CD73 modulation and indications therefor” (Opna Bio SA, priority 2020, dated 2025).

Test [1] concerns the target T1, Human CD73 (amino acid residues 27-549) (Homo sapiens, UniProt P21589).
T1 construct: Human CD73 (amino acid residues 27-549); His tag (N); made in house; host or cells: E. coli
T1 sequence (P21589 27-549): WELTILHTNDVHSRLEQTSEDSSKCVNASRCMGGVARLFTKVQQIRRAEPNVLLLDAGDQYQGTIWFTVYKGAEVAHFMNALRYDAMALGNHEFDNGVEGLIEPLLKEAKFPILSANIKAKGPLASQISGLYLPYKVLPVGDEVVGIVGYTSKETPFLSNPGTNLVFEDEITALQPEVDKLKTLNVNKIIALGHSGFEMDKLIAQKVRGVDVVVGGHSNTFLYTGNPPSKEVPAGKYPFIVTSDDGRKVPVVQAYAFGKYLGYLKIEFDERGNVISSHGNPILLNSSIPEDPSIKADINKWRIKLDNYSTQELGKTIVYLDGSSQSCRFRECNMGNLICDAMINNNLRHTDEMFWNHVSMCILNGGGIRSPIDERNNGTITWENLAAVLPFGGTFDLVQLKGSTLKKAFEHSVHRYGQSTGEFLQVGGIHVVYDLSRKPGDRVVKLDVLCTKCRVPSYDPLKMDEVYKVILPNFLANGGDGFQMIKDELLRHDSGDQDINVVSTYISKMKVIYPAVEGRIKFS
The test is described as follows: CD73 enzymatic assay (luciferase-based indirect assay, CellTiter-Glo). It is filed as biochemical. As to conditions: 0.4 nM CD73, 150 μM AMP, 1 hour at room temperature. In a few lines:
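N-His human CD73 (27-549) expressed in E. coli, 0.4 nM, incubated with 150 μM AMP and compound in 50 mM HEPES pH 7.4, 0.01% Tween-20, 1 h at RT. Remaining AMP read via CellTiter-Glo luminescence with 1 μM ATP after 30 min; IC50 from nonlinear regression of % inhibition.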
On the technique in general: ATP-based viability assays read luminescence as a measure of living cells.

A further test concerns the target T2, human CD73 (Homo sapiens, UniProt P21589).
T2 construct: expressed in transfected cells
T2 sequence (P21589 27-549): T1 sequence (P21589 27-549)
The test is described as follows: Inhibitor activity against CD73 in cell based assay (CD73 expressing CHO-K1 cells). As to conditions: CHO-K1 cells expressing human CD73, 150 μM AMP, 4 hours of incubation; read-out: CHO-K1 CELL_VARIANT: CD73 IC50. A digest of the protocol:
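Stable human CD73 CHO-K1 cells, 1×10^4/well, exposed to an 8-point 1:3 compound series (top 10 μM, 0.2% DMSO) plus 150 μM AMP for 4 h. Remaining AMP in the supernatant was read by CellTiter-Glo 2.0 luminescence with 1 μM ATP after 30 min at room temperature. IC50 came from nonlinear regression of % inhibition against cell and media-only controls.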

The structures appear in SMILES notation. pIC50: −log10 of the molar value.

For orientation: pIC50 means the negative decadic logarithm of the IC50, by convention in mol/L. For the compound `Cc1nn(C)c(C)c1-c1cc(O[C@@H]2CCN(c3cn[nH]c(=O)c3Cl)C2)c(F)cn1` [P-0117, (R)-4-chloro-5-(3-((5-fluoro-2-(1,3,5-trimethyl-1H-pyrazol-4-yl)pyridin-4-yl)oxy)pyrrolidin-1-yl)pyridazin-3(2H)-one], the pIC50 (in test [1]; on human CD73) was 5.00 to 9.00 in each case.

For `Cc1noc(C)c1-c1cc(O[C@@H]2CCN(c3cn[nH]c(=O)c3Cl)C2)c(F)cn1` [P-0118, (R)-4-chloro-5-(3-((2-(3,5-dimethylisoxazol-4-yl)-5-fluoropyridin-4-yl)oxy)pyrrolidin-1-yl)pyridazin-3(2H)-one], the negative-log IC50 (pIC50) (in test [1]; on human CD73) was 5.00 to 9.00 in each case.

Consider `Cc1nn(C)c(C)c1-c1cc(O[C@H]2CN(c3cnn(CCO)c(=O)c3Cl)C[C@@H]2F)ccn1` [P-0119, 4-chloro-5-((3S,4S)-3-fluoro-4-((2-(1,3,5-trimethyl-1H-pyrazol-4-yl)pyridin-4-yl)oxy)pyrrolidin-1-yl)-2-(2-hydroxyethyl)pyridazin-3(2H)-one], for which the negative-log IC50 (pIC50) (in test [1]; on human CD73) was 5.00 to 9.00 throughout.

Consider `Cc1noc(C)c1-c1cc(O[C@H]2CN(c3cnn(CCO)c(=O)c3Cl)C[C@@H]2F)ccn1` [P-0120, 4-chloro-5-((3S,4S)-3-((2-(3,5-dimethylisoxazol-4-yl)pyridin-4-yl)oxy)-4-fluoropyrrolidin-1-yl)-2-(2-hydroxyethyl)pyridazin-3(2H)-one], for which the pIC50 (in test [1]; on human CD73) was 5.00 to 9.00 each time.

Regarding `Cc1nn(C)c(C)c1-c1cc(O[C@H]2CN(c3cn[nH]c(=O)c3Cl)C[C@@H]2F)ccn1` [P-0121, 4-chloro-5-((3S,4S)-3-fluoro-4-((2-(1,3,5-trimethyl-1H-pyrazol-4-yl)pyridin-4-yl)oxy)pyrrolidin-1-yl)pyridazin-3(2H)-one], the negative-log IC50 (pIC50) (in test [1]; on human CD73) was 5.00 to 9.00 each time.

Turning to `Cc1noc(C)c1-c1cc(O[C@H]2CN(c3cn[nH]c(=O)c3Cl)C[C@@H]2F)ccn1` [P-0122, 4-chloro-5-((3S,4S)-3-((2-(3,5-dimethylisoxazol-4-yl)pyridin-4-yl)oxy)-4-fluoropyrrolidin-1-yl)pyridazin-3(2H)-one], the negative-log IC50 (pIC50) (in test [1]; at human CD73) was 5.00 to 9.00 each time.

Take `Cc1noc(C)c1-c1cc(F)nc(O[C@@H]2CCN(c3cnn(CCO)c(=O)c3Cl)C2)c1` [P-0123, (R)-4-chloro-5-(3-((4-(3,5-dimethylisoxazol-4-yl)-6-fluoropyridin-2-yl)oxy)pyrrolidin-1-yl)-2-(2-hydroxyethyl)pyridazin-3(2H)-one]: the pIC50 (in test [1]; on human CD73) was 5.00 to 9.00 in each case.

Take `COCc1noc(C)c1-c1cc(O[C@@H]2CCN(c3cnn(CCO)c(=O)c3Cl)C2)ncn1` [P-0124, (R)-4-chloro-2-(2-hydroxyethyl)-5-(3-((6-(3-(methoxymethyl)-5-methylisoxazol-4-yl)pyrimidin-4-yl)oxy)pyrrolidin-1-yl)pyridazin-3(2H)-one]: the negative logarithm of the IC50 (pIC50) (in test [1]; at human CD73) was 5.00 to 9.00 throughout.

As for `COCc1noc(C)c1-c1cc(O[C@@H]2CCN(c3cn[nH]c(=O)c3Cl)C2)ncn1` [P-0125, (R)-4-chloro-5-(3-((6-(3-(methoxymethyl)-5-methylisoxazol-4-yl)pyrimidin-4-yl)oxy)pyrrolidin-1-yl)pyridazin-3(2H)-one], the pIC50 (in test [1]; at human CD73) was 5.00 to 9.00 in each case.

Turning to `Cc1nn(C)c(C)c1-c1ccnc(O[C@@H]2CCN(c3cnn(CC(C)O)c(=O)c3Cl)C2)c1` (stereo partly drawn) [P-0126, 4-chloro-2-(2-hydroxypropyl)-5-((R)-3-((4-(1,3,5-trimethyl-1H-pyrazol-4-yl)pyridin-2-yl)oxy)pyrrolidin-1-yl)pyridazin-3(2H)-one], the negative logarithm of the IC50 (pIC50) (in test [1]; on human CD73) was 5.00 to 9.00 each time.

Consider `Cc1nn(C)c(C)c1-c1ccnc(O[C@@H]2CCN(c3cnn(CCCO)c(=O)c3Cl)C2)c1` [P-0127, (R)-4-chloro-2-(3-hydroxypropyl)-5-(3-((4-(1,3,5-trimethyl-1H-pyrazol-4-yl)pyridin-2-yl)oxy)pyrrolidin-1-yl)pyridazin-3(2H)-one], for which the negative logarithm of the IC50 (pIC50) (in test [1]; on human CD73) was 5.00 to 9.00 throughout.
